Reference: article PMC4134498 (British Journal of Cancer, 2014)
“Also recorded” adds a separate entry of the source. Marks after values point to notes of the source that are not given here.

Test system: patients with advanced solid tumours
Assay: Phase I study of olaparib capsules plus PLD
Assay type: in vivo
[1] = all olaparib cohorts + PLD 40 mg m^−2, Total (n=44)
[2] = olaparib 50 mg bid 7 day + PLD 40 mg m^−2 (n=3)
[3] = olaparib 100 mg bid 7 day + PLD 40 mg m^−2 (n=3)
[4] = olaparib 100 mg bid 28 day + PLD 40 mg m^−2 (n=4)
[5] = olaparib 200 mg bid 7 day + PLD 40 mg m^−2 (n=3)
[6] = olaparib 200 mg bid 28 day + PLD 40 mg m^−2 (n=7)
[7] = olaparib 400 mg bid 7 day + PLD 40 mg m^−2 (n=12)
[8] = olaparib 400 mg bid 28 day + PLD 40 mg m^−2 (n=12)
[9] = olaparib + PLD, all cohorts (n=2)
[10] = olaparib + PLD, all cohorts, n=44

Structure (SMILES): O=C(c1cc(Cc2n[nH]c(=O)c3ccccc23)ccc1F)N1CCN(C(=O)C2CC2)CC1 [olaparib]
- Anorexia, patients with grade ⩾3 AE [1]: 2 (5) n (%)
- Anorexia, patients with treatment-related AE [1]: 12 (27) n (%)
- Asthenia, patients with grade ⩾3 AE [1]: 1 (2) n (%)
- Asthenia, patients with treatment-related AE [1]: 21 (48) n (%)
- Decreased neutrophil count, patients with grade ⩾3 AE [1]: 9 (20) n (%)
- Decreased neutrophil count, patients with treatment-related AE [1]: 13 (30) n (%)
- Nausea, patients with grade ⩾3 AE [1]: 5 (11) n (%)
- Nausea, patients with treatment-related AE [1]: 28 (64) n (%)
- PPES, patients with grade ⩾3 AE [1]: 1 (2) n (%)
- PPES, patients with treatment-related AE [1]: 11 (25) n (%)
- Stomatitis, patients with grade ⩾3 AE [1]: 7 (16) n (%)
- Stomatitis, patients with treatment-related AE [1]: 32 (73) n (%)
- Vomiting, patients with grade ⩾3 AE [1]: 1 (2) n (%)
- Vomiting, patients with treatment-related AE [1]: 13 (30) n (%)
- Asthenia, patients with treatment-related AE [2]: 2 n
- Decreased neutrophil count, patients with grade ⩾3 AE [2]: 2 n
- Decreased neutrophil count, patients with treatment-related AE [2]: 2 n
- Nausea, patients with treatment-related AE [2]: 3 n
- Stomatitis, patients with treatment-related AE [2]: 3 ^b n
- Asthenia, patients with treatment-related AE [3]: 1 n
- Decreased neutrophil count, patients with grade ⩾3 AE [3]: 3 n
- Decreased neutrophil count, patients with treatment-related AE [3]: 3 n
- Nausea, patients with grade ⩾3 AE [3]: 1 n
- Nausea, patients with treatment-related AE [3]: 2 n
- Stomatitis, patients with grade ⩾3 AE [3]: 2 ^c n
- Stomatitis, patients with treatment-related AE [3]: 3 n
- Vomiting, patients with treatment-related AE [3]: 1 n
- Anorexia, patients with grade ⩾3 AE [4]: 1 n
- Anorexia, patients with treatment-related AE [4]: 1 n
- Asthenia, patients with treatment-related AE [4]: 2 n
- Decreased neutrophil count, patients with grade ⩾3 AE [4]: 1 n
- Decreased neutrophil count, patients with treatment-related AE [4]: 2 n
- Nausea, patients with treatment-related AE [4]: 2 n
- Stomatitis, patients with treatment-related AE [4]: 2 n
- Asthenia, patients with treatment-related AE [5]: 2 n
- Decreased neutrophil count, patients with treatment-related AE [5]: 1 n
- Nausea, patients with treatment-related AE [5]: 2 n
- PPES, patients with treatment-related AE [5]: 1 n
- Stomatitis, patients with treatment-related AE [5]: 2 n
- Anorexia, patients with grade ⩾3 AE [6]: 1 n
- Anorexia, patients with treatment-related AE [6]: 3 n
- Asthenia, patients with treatment-related AE [6]: 2 n
- Decreased neutrophil count, patients with grade ⩾3 AE [6]: 1 n
- Decreased neutrophil count, patients with treatment-related AE [6]: 1 n
- Nausea, patients with treatment-related AE [6]: 3 n
- PPES, patients with treatment-related AE [6]: 2 n
- Stomatitis, patients with grade ⩾3 AE [6]: 1 n
- Stomatitis, patients with treatment-related AE [6]: 5 n
- Vomiting, patients with treatment-related AE [6]: 3 n
- Anorexia, patients with treatment-related AE [7]: 4 n
- Asthenia, patients with grade ⩾3 AE [7]: 1 n
- Asthenia, patients with treatment-related AE [7]: 6 n
- Decreased neutrophil count, patients with grade ⩾3 AE [7]: 1 n
- Decreased neutrophil count, patients with treatment-related AE [7]: 2 n
- Nausea, patients with grade ⩾3 AE [7]: 4 n
- Nausea, patients with treatment-related AE [7]: 8 n
- PPES, patients with treatment-related AE [7]: 4 n
- Stomatitis, patients with grade ⩾3 AE [7]: 2 n
- Stomatitis, patients with treatment-related AE [7]: 6 n
- Vomiting, patients with grade ⩾3 AE [7]: 1 n
- Vomiting, patients with treatment-related AE [7]: 6 n
- Anorexia, patients with treatment-related AE [8]: 4 n
- Asthenia, patients with treatment-related AE [8]: 6 n
- Decreased neutrophil count, patients with grade ⩾3 AE [8]: 1 n
- Decreased neutrophil count, patients with treatment-related AE [8]: 2 n
- Nausea, patients with treatment-related AE [8]: 8 n
- PPES, patients with grade ⩾3 AE [8]: 1 n
- PPES, patients with treatment-related AE [8]: 4 n
- Stomatitis, patients with grade ⩾3 AE [8]: 2 n
- Stomatitis, patients with treatment-related AE [8]: 11 n
- Vomiting, patients with treatment-related AE [8]: 3 n
- patients with alterations in neutrophil count (olaparib + PLD, all cohorts): 30%
- Grade ⩾3 haematologic alterations: haemoglobin [9]: 5%
- Grade ⩾3 haematologic alterations: white blood cells [9]: 5%
- Grade ⩾3 haematologic alterations: platelets (olaparib + PLD, all cohorts (n=3)): 7%
- alterations in neutrophil count reported as AEs [10]: 13 n
- overall incidence of CTCAE grade ⩾3 events [10]: 61%
- patients discontinued/withdrawn because of treatment-related AEs [10]: seven
- patients who died during the study [10]: Five
- patients with treatment-related serious AEs [10]: five
- patients with serious AEs (olaparib + PLD, all cohorts, n=44 (12 patients)): 27%
- patients with serious AEs of pneumonitis (olaparib + PLD, 100 mg 28-day, 200 mg 28-day and 400 mg 7-day cohorts): three
- MTD of olaparib with PLD (up to continuous olaparib 400 mg bid + PLD 40 mg m^−2): not reached; also recorded: could not be determined
